Numbered stars: 1 amine (or outer) side, 2 acyl side, 3 side chain; on linkers, the order of the positions; unused ones are H or OH. Square brackets hold non-standard residues; d marks the D form. Peptide text beside a SMILES is read from it. Ala(1H-tetrazol-5-yl) = N[C@@H](Cc1nnn[nH]1)C(=O)O; X1 = O=C([C@H](CCc1nnn[nH]1)N[*:1])[*:2]; Nle = CCCC[C@H](N)C(=O)O
T1: PAC1R (Homo sapiens, UniProt P41586)
T1 construct: host or cells: CHO-K1
T1 sequence (P41586 21-468): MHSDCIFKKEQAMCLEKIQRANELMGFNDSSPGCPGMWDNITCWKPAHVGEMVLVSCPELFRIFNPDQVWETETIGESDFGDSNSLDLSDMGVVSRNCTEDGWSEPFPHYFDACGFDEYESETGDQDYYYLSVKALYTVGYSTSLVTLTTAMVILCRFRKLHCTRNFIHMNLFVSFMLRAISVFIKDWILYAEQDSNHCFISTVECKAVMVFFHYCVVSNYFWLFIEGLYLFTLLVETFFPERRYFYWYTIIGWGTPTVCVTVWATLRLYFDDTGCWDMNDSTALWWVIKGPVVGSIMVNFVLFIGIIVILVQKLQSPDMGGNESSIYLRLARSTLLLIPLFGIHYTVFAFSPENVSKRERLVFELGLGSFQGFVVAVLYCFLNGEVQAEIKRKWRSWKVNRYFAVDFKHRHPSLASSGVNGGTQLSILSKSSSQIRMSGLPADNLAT

T2: VPAC1R (Homo sapiens, UniProt P32241)
T2 construct: host or cells: CHO-K1
T2 sequence (P32241 31-457): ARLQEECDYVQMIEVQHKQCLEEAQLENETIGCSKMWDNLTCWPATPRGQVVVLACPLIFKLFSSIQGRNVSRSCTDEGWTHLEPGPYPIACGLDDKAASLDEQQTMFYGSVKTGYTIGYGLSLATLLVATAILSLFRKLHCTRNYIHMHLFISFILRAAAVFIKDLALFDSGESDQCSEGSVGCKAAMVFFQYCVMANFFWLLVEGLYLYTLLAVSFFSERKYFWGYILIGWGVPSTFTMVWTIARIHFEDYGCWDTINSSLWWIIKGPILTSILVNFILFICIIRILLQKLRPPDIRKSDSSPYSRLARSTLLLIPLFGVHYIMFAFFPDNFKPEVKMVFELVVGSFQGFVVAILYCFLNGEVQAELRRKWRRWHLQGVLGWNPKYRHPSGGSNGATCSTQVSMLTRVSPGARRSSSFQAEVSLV

T3: VPAC1 receptor (UniProt P32241 31-457, limits assumed)
T3 sequence (looked up): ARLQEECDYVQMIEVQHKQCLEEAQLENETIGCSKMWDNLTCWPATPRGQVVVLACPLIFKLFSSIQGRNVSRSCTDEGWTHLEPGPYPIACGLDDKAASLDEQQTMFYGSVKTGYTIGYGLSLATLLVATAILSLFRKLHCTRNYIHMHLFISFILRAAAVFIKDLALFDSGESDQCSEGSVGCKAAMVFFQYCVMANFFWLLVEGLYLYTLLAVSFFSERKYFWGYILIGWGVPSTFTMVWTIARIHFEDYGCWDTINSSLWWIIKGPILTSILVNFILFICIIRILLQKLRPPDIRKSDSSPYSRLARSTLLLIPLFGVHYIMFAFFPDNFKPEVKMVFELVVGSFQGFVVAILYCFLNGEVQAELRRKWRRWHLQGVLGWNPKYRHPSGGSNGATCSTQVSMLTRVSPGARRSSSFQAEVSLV

T4: PAC1 receptor (UniProt P41586 21-468, limits assumed)
T4 sequence (looked up): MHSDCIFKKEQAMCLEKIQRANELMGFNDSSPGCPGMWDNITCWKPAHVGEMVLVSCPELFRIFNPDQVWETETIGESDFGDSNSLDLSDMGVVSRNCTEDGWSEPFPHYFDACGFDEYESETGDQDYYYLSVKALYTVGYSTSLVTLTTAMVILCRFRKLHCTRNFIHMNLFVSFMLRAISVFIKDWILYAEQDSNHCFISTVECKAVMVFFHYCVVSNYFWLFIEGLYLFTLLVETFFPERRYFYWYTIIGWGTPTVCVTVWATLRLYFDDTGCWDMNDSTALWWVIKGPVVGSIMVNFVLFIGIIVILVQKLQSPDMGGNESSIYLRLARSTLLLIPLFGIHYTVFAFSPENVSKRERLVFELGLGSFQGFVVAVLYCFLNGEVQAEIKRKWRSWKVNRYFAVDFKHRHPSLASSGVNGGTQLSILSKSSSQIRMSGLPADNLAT


Assays:
PAC1R = target: T1, PAC1R; assay: cAMP assay in PAC1R high-expressing CHO-K1 cell line; format: cell-based; conditions: cAMP inducing effect, CHO-K1 PAC1R high-expressing cells
Method: (§1) The cells were cultured for 18 to 24 hours at 37° C. in a 5% C02 incubator, adhering the cells to the plate. […] A 5-fold dilution series was then prepared with the same Cell assay buffer and used in an assay. The cAMP assay was carried out using a Hit Hunter cAMP Assay for Biologics kit (product of DiscoveRx, Cat. No. 90-0075LM25), according to the included kit instructions. […] Next, the culture medium was removed from the CHO-K1 cell culture plate, washing was performed with PBS, and the peptide-cAMP antibody liquid mixtures were added to the cells and incubated for 30 minutes under a 5% CO2 atmosphere at 37° C. A working detection solution was then added and the culture plate was shielded from light with aluminum foil and incubated at 25° C. for 1 hour. After incubation, Solution A was added and the culture plate was shielded from light with aluminum foil and then incubated at 25° C. for 3 hours. […] The obtained value for the Relative Luminescence Unit (RLU) was analyzed with GraphPad Prism Ver 6.05 (product of Graph Pad) and the EC50 value was calculated for each peptide. […] FIG. 2 and Table 11. […] A 5-fold dilution series was then prepared with the same Cell assay buffer and used in an assay. […] A 5-fold dilution series was then prepared with the same Cell assay buffer and used in an assay.

[1] = Peptide stability test, Tris buffer (pH 7.0), 60° C. storage, HPLC remaining rate; format: physicochemical; conditions: Table 7; 100 μM in Tris buffer pH 7.0
Outline: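 Peptides at 100 μM in Tris buffer (pH 7.0) stored 1 or 2 weeks at 60° C.; unstored sample kept at −30° C. as initial reference. Remaining peptide quantified by reversed-phase HPLC at 220 nm (formic acid/acetonitrile gradient, 40° C. column), as water-corrected remaining rate.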

VPAC1R = target: T2, VPAC1R; assay: cAMP assay in VPAC1R high-expressing CHO-K1 cell line; format: cell-based; conditions: Table 12; cAMP inducing effect, CHO-K1 VPAC1R high-expressing cells
Method: as §1

VPAC1 receptor = target: T3, VPAC1 receptor; assay: cell-based or functional assay
PAC1 receptor = target: T4, PAC1 receptor; assay: cell-based or functional assay

remaining rate after correction for water, 60° C., 1 week preservation [1] | remaining rate after correction for water, 60° C., 2 weeks preservation [1] | EC50 (VPAC1R) | Molecule | further results
 |  |  | CCCC[C@H](NC(=O)[C@H](CCC(N)=O)NC(=O)[C@H](CCCCN)NC(=O)[C@H](CCCNC(=N)N)NC(=O)[C@H](Cc1ccc(O)cc1)NC(=O)[C@H](CCCNC(=N)N)NC(=O)[C@H](CO)NC(=O)[C@H](Cc1ccc(O)cc1)NC(=O)[C@H](CO)NC(=O)[C@H](Cc1nnn[nH]1)NC(=O)[C@@H](NC(=O)[C@H](Cc1ccccc1)NC(=O)[C@@H](NC(=O)CNC(=O)[C@H](Cc1nnn[nH]1)NC(=O)[C@H](CO)NC(=O)[C@@H](N)Cc1c[nH]cn1)[C@@H](C)CC)[C@@H](C)O)C(=O)N[C@@H](C)C(=O)N[C@H](C(=O)N[C@@H](CCCCN)C(=O)N[C@@H](CCCCN)C(=O)N[C@@H](Cc1ccc(O)cc1)C(=O)N[C@@H](CC(C)C)C(=O)N[C@@H](C)C(=O)N[C@@H](C)C(=O)N[C@H](C(=O)N[C@@H](CC(C)C)C(N)=O)C(C)C)C(C)C [Peptide 6] (H-HS[Ala(1H-tetrazol-5-yl)]GIFT[Ala(1H-tetrazol-5-yl)]SYSRYRKQ[Nle]AVKKYLAAVL-NH2) | EC50 (PAC1R; Table 11): 0.079 nM
97.4% | 95.4% | 0.072 nM | CC[C@H](C)[C@H](NC(=O)CNC(=O)[C@H](Cc1nnn[nH]1)NC(=O)[C@H](CO)NC(=O)[C@H](Cc1c[nH]cn1)NC(C)=O)C(=O)N[C@@H](Cc1ccccc1)C(=O)N[C@H](C(=O)N[C@@H](Cc1nnn[nH]1)C(=O)N[C@@H](CO)C(=O)N[C@@H](Cc1ccc(O)cc1)C(=O)N[C@@H](CO)C(=O)N[C@@H](CCCNC(=N)N)C(=O)N[C@@H](Cc1ccc(O)cc1)C(=O)N[C@@H](CCCNC(=N)N)C(=O)N[C@@H](CCCCN)C(=O)N[C@@H](CCc1nnn[nH]1)C(=O)N[C@@H](CC(C)C)C(=O)N[C@@H](C)C(=O)N[C@H](C(=O)N[C@@H](CCCCN)C(=O)N[C@@H](CCCCN)C(=O)N[C@@H](Cc1ccc(O)cc1)C(=O)N[C@@H](CC(C)C)C(=O)N[C@@H](C)C(=O)N[C@@H](C)C(=O)N[C@H](C(=O)N[C@@H](CC(C)C)C(N)=O)C(C)C)C(C)C)[C@@H](C)O [Peptide 13] (Ac-HS[Ala(1H-tetrazol-5-yl)]GIFT[Ala(1H-tetrazol-5-yl)]SYSRYRK[X1]LAVKKYLAAVL-NH2) | 
97.3% | 94.9% |  | CC[C@H](C)[C@H](NC(=O)CNC(=O)[C@H](Cc1nnn[nH]1)NC(=O)[C@H](CO)NC(=O)[C@H](Cc1c[nH]cn1)NC(C)=O)C(=O)N[C@@H](Cc1ccccc1)C(=O)N[C@H](C(=O)N[C@@H](Cc1nnn[nH]1)C(=O)N[C@@H](C)C(=O)N[C@@H](Cc1ccc(O)cc1)C(=O)N[C@@H](CO)C(=O)N[C@@H](CCCNC(=N)N)C(=O)N[C@@H](Cc1ccc(O)cc1)C(=O)N[C@@H](CCCNC(=N)N)C(=O)N[C@@H](CCCCN)C(=O)N[C@@H](CCC(N)=O)C(=O)N[C@@H](CC(C)C)C(=O)N[C@@H](C)C(=O)N[C@H](C(=O)N[C@@H](CCCCN)C(=O)N[C@@H](CCCCN)C(=O)N[C@@H](Cc1ccc(O)cc1)C(=O)N[C@@H](CC(C)C)C(=O)N[C@@H](C)C(=O)N[C@@H](C)C(=O)N[C@H](C(=O)N[C@@H](CC(C)C)C(N)=O)C(C)C)C(C)C)[C@@H](C)O [Peptide 15] (Ac-HS[Ala(1H-tetrazol-5-yl)]GIFT[Ala(1H-tetrazol-5-yl)]AYSRYRKQLAVKKYLAAVL-NH2) | EC50 (PAC1R; Table 12): 0.061 nM
95.8% | 92.7% | 0.044 nM | CC[C@H](C)[C@H](NC(=O)CNC(=O)[C@H](Cc1nnn[nH]1)NC(=O)[C@H](CO)NC(=O)[C@H](Cc1c[nH]cn1)NC(C)=O)C(=O)N[C@@H](Cc1ccccc1)C(=O)N[C@H](C(=O)N[C@@H](Cc1nnn[nH]1)C(=O)N[C@@H](CO)C(=O)N[C@@H](Cc1ccc(O)cc1)C(=O)N[C@@H](CO)C(=O)N[C@@H](CCCNC(=N)N)C(=O)N[C@@H](Cc1ccc(O)cc1)C(=O)N[C@@H](CCCNC(=N)N)C(=O)N[C@@H](CCCCN)C(=O)N[C@@H](CCC(N)=O)C(=O)N[C@@H](CC(C)C)C(=O)N[C@@H](C)C(=O)N[C@@H](C)C(=O)N[C@@H](CCCCN)C(=O)N[C@@H](CCCCN)C(=O)N[C@@H](Cc1ccc(O)cc1)C(=O)N[C@@H](CC(C)C)C(=O)N[C@@H](C)C(=O)N[C@@H](C)C(=O)N[C@H](C(=O)N[C@@H](CC(C)C)C(N)=O)C(C)C)[C@@H](C)O [Peptide 19] (Ac-HS[Ala(1H-tetrazol-5-yl)]GIFT[Ala(1H-tetrazol-5-yl)]SYSRYRKQLAAKKYLAAVL-NH2) | 
 |  |  | Ac-HS[Ala(1H-tetrazol-5-yl)]AIFT[Ala(1H-tetrazol-5-yl)]SYSRYRKAAAVKKYLAAVL-NH2 (SMILES CC[C@H](C)[C@H](NC(=O)[C@H](C)NC(=O)[C@H](Cc1nnn[nH]1)NC(=O)[C@H](CO)NC(=O)[C@H](Cc1c[nH]cn1)NC(C)=O)C(=O)N[C@@H](Cc1ccccc1)C(=O)N[C@H](C(=O)N[C@@H](Cc1nnn[nH]1)C(=O)N[C@@H](CO)C(=O)N[C@@H](Cc1ccc(O)cc1)C(=O)N[C@@H](CO)C(=O)N[C@@H](CCCNC(=N)N)C(=O)N[C@@H](Cc1ccc(O)cc1)C(=O)N[C@@H](CCCNC(=N)N)C(=O)N[C@@H](CCCCN)C(=O)N[C@@H](C)C(=O)N[C@@H](C)C(=O)N[C@@H](C)C(=O)N[C@H](C(=O)N[C@@H](CCCCN)C(=O)N[C@@H](CCCCN)C(=O)N[C@@H](Cc1ccc(O)cc1)C(=O)N[C@@H](CC(C)C)C(=O)N[C@@H](C)C(=O)N[C@@H](C)C(=O)N[C@H](C(=O)N[C@@H](CC(C)C)C(N)=O)C(C)C)C(C)C)[C@@H](C)O) [Peptide 34] | EC50 (VPAC1R), cAMP inducing effect (VPAC1 receptor): 0.089 nM; EC50 (PAC1R), cAMP inducing effect (PAC1 receptor): 0.21 nM

Source: US20220202905A1, “COMPOSITION FOR PREVENTING OR TREATING NEUROTROPHIC KERATITIS WHICH CONTAINS PACAP PEPTIDE OR STABILIZED PACAP PEPTIDE” (SENJU PHARMACEUTICAL CO., LTD., priority 2019, published 2022)
